A value given as a limit tells only on which side of the number the result lay.

Format in all cases: cell-based
For one experiment, the target named is Mu-type opioid receptor (Homo sapiens, UniProt P35372). Description: Displacement of [3H]diprenorphine from cloned human mu opioid receptor expressed in CHO cells.
In experiment [1] the target is Kappa-type opioid receptor (Homo sapiens, UniProt P41145). Description: Displacement of [3H]diprenorphine from cloned human kappa opioid receptor expressed in CHO cells.
The target of experiment [2] is Delta-type opioid receptor (Homo sapiens, UniProt P41143). Description: Displacement of [3H]bremazocine from cloned human delta opioid receptor expressed in CHO cells.
Delta-type opioid receptor, sequence (P41143 whole entry): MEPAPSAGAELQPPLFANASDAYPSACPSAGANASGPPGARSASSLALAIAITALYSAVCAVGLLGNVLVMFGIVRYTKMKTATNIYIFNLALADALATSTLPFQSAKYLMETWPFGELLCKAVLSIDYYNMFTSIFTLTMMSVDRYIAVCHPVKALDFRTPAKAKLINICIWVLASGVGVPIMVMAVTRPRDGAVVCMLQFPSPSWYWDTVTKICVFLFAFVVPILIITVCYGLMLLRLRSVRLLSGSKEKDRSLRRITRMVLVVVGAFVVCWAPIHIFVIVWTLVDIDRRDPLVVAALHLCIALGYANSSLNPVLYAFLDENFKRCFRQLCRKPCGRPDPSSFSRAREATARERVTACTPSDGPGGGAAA

Kappa-type opioid receptor, sequence (P41145 whole entry): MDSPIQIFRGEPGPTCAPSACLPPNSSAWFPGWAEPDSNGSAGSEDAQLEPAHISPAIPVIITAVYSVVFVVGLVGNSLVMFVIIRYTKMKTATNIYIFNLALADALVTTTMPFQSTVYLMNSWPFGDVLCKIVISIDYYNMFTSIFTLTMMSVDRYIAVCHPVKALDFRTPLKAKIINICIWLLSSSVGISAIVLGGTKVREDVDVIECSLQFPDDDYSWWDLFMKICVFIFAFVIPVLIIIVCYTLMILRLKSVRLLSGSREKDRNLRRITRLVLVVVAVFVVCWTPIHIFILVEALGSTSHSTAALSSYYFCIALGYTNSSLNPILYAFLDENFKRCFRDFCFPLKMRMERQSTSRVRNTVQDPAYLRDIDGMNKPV
Mu-type opioid receptor, sequence (P35372 whole entry): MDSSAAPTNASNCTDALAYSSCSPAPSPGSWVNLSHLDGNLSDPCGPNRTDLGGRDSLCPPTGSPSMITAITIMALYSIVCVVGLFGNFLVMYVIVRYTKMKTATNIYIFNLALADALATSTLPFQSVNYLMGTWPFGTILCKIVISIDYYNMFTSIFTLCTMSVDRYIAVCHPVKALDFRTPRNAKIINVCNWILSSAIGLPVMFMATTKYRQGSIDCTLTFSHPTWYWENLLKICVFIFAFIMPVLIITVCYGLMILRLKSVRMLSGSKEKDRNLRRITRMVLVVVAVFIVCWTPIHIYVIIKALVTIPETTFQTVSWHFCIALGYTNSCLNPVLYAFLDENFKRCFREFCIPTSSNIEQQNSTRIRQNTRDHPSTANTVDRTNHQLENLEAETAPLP

For `NC(=O)c1ccc(Oc2ccc3c(c2)CCN(CCc2ccccc2)CC3)nc1`, the Ki on Mu-type opioid receptor is 0.0915 µM; in experiment [1], greater than 4.9 µM; in experiment [2] it was 1.38 µM.
The corresponding values for `CC(C)(C)CCN1CCCc2cc(Oc3ccc(C(N)=O)cn3)ccc2C1` are 0.0183 µM, 0.0716 µM and 0.409 µM.
Turning to `NC(=O)c1ccc(Oc2ccc3c(c2)CCN(CCCc2ccccc2)C3)nc1`, the Ki at Mu-type opioid receptor was determined as 0.185 µM; in experiment [1], 0.556 µM; in experiment [2] it was 2.14 µM.
Taken in the same sequence, the figures for `CC(C)CCCN1CCCc2cc(Oc3ccc(C(N)=O)cn3)ccc2C1` were 0.00755 µM, 0.106 µM and 0.108 µM.
Taken in the same sequence, the figures for `NC(=O)c1ccc(Oc2ccc3c(c2)CCN(Cc2ccccc2)CC3)nc1` were 0.406 µM, 2.87 µM and 2.71 µM.
Taken in the same sequence, the figures for `NC(=O)c1ccc(Oc2ccc3c(c2)CCCN(CCN2CCOCC2)C3)nc1` were 0.129 µM, 0.36 µM and 1.91 µM.
On to `NC(=O)c1ccc(Oc2ccc3c(c2)CCCN(CCCN2CCOCC2)C3)nc1`, for which the Ki on Mu-type opioid receptor amounted to 0.216 µM; in experiment [1] it was 3.25 µM; in experiment [2], 2.58 µM.
Regarding `CCCCN1CCCc2cc(Oc3ccc(C(N)=O)cn3)ccc2C1`, the Ki on Mu-type opioid receptor was 0.0208 µM; in experiment [2], 0.504 µM.
As to `NC(=O)c1ccc(Oc2ccc3c(c2)CCCN(CCCC2CCCCC2)C3)nc1`, the Ki was determined as 0.0417 µM at Mu-type opioid receptor, 0.704 µM in experiment [1] and 0.466 µM in experiment [2].
On to `NC(=O)c1ccc(Oc2ccc3c(c2)CCCN(CCCC(F)(F)F)C3)nc1`, for which the inhibitory constant (Ki) came to 0.0244 µM on Mu-type opioid receptor and 0.388 µM in experiment [2].
`NC(=O)c1ccc(Oc2ccc3c(c2)CCCN(CCc2ccccc2)C3)nc1`: the inhibition constant (Ki) was determined as 0.0101 µM on Mu-type opioid receptor, 0.361 µM in experiment [1] and 0.169 µM in experiment [2].
With `CCCCCCN1CCCc2cc(Oc3ccc(C(N)=O)cn3)ccc2C1`, the Ki amounted to 0.012 µM at Mu-type opioid receptor, 0.116 µM in experiment [1] and 0.163 µM in experiment [2].
The corresponding values for `NC(=O)c1ccc(Oc2ccc(CCN3CCc4ccccc4C3)cc2)nc1` are 0.00505 µM, 0.188 µM and 0.144 µM.
The corresponding values for `NC(=O)c1ccc(Oc2ccc3c(c2)CCN(Cc2ccccc2)C3)nc1` are 0.179 µM, 2.15 µM and 2.35 µM.
Taken in the same sequence, the figures for `CCC(CC)CN1CCCc2cc(Oc3ccc(C(N)=O)cn3)ccc2C1` were 0.042 µM, 0.0616 µM and 3.89 µM.
For `NC(=O)c1ccc(Oc2ccc3c(c2)CCN(CCc2ccccc2)C3)nc1`, the results for the inhibition constant (Ki) (at Mu-type opioid receptor; in experiment [1]; in experiment [2]) were 0.016 µM, 1.22 µM and 0.18 µM, respectively.
On to `NC(=O)c1ccc(Oc2ccc3c(c2)CN(Cc2ccccc2)C3)nc1`, for which the Ki on Mu-type opioid receptor was 1.01 µM; in experiment [1], greater than 5 µM; in experiment [2], greater than 5 µM.
Take `CC(C)CCN1CCCc2cc(Oc3ccc(C(N)=O)cn3)ccc2C1`: the values for the Ki (on Mu-type opioid receptor; in experiment [1]; in experiment [2]) were 0.0111 µM, 0.0781 µM and 0.232 µM, respectively.
Taken in the same sequence, the figures for `CC(C)CCCCN1CCCc2cc(Oc3ccc(C(N)=O)cn3)ccc2C1` were 0.0119 µM, 0.319 µM and 0.24 µM.
In the case of `NC(=O)c1ccc(Oc2ccc3c(c2)CN(CCc2ccccc2)C3)nc1`, the Ki on Mu-type opioid receptor was 0.659 µM; in experiment [1], greater than 5 µM; in experiment [2], 2.27 µM.
For `CCCCCN1CCCc2cc(Oc3ccc(C(N)=O)cn3)ccc2C1`, the Ki at Mu-type opioid receptor was 0.0119 µM; in experiment [1] it was 0.106 µM; in experiment [2], 0.187 µM.
The corresponding values for `NC(=O)c1ccc(Oc2ccc3c(c2)CN(Cc2ccccc2)CC3)nc1` are 0.232 µM, 2.43 µM and 2.45 µM.
As for `NC(=O)c1ccc(Oc2ccc3c(c2)CN(CCc2ccccc2)CC3)nc1`, the Ki is greater than 3.33 µM on Mu-type opioid receptor, 3.61 µM in experiment [1] and greater than 5 µM in experiment [2].

Values taken from ChEMBL document CHEMBL1138307, “Structure activity relationship studies of carboxamido-biaryl ethers as opioid receptor antagonists (OpRAs). Part 2” (Bioorg Med Chem Lett, 2007).
